{"source": "patent US20230270805A1", "about": "“A COMPOSITION COMPRISING AN EXTRACT OF ALDER TREE OR THE ISOLATED COMPOUNDS THEREFROM FOR TREATING AND PREVENTING SKELETON MUSCLE-RELATED DISORDER AND THE USE THEREOF” (Sookmyung Women's University Indusutry-Academic Cooperation …, priority 2020, published 2023)", "key": {"MHC": {"tested_on": "MHC", "assay": "Western blot of MHC in dexamethasone-treated myotube cells (in vitro model of muscle loss)", "assay_type": "cell-based, mouse", "settings": "myotube cells treated with dexamethasone alone; untreated cells = 1", "method": "(§1) In order to confirm the inhibitory effect of the inventive extract obtained in Example, dexamethasone was treated to myotube cell to establish in vitro model of muscle loss and following experiment was performed according to the procedure disclosed in the previous literature (Int. J. Mol. Med. 2015, 36:29).\n(§2) For Western blot analysis, about 3×10^4 mouse myoblast cell cells (C2C12; CRL-1772 ATCC) were incubated in 60 mm plates for 24 hours, and various concentrations of each inventive extract (0, 1, 10, 100 ng/mL) was added to the differentiation medium for 3 days to differentiate. The protein extract was obtained from the differentiated cells using by lysis buffer [25 mM Tris-HCl (pH 7.5), 100 mM NaCl, 1% NP-40, 1% sodium deoxycholate, 0.1% sodium dodecyl sulfate (SDS), and protease inhibitor cocktail, Calbiochem, Darmstadt, Germany). The protein extract (25 μg) was performed to SDS-polyacrylamide gel electorphoresis (PAGE) and transferred to polyvinylidene fluoride (PVDF) membranes.\nPrimary mouse anti-MHC (sc-376157, Santa Cruz) or primary mouse anti-MAFbx (sc-166806, Santa Cruz) was conjugated to the blots at 4° C., for 12 hrs and then conjugated with anti-mouse secondary antibody conjugated to Horseradish peroxidase (goat anti-mouse IgG-HRP, sc-2005, Santa Cruz) to analyze the amount of MHC and MAFbx protein by chemiluminescence method. […]"}, "MAFbx": {"tested_on": "MAFbx", "assay": "Western blot of MAFbx in dexamethasone-treated myotube cells (in vitro model of muscle loss)", "assay_type": "cell-based, mouse", "settings": "myotube cells treated with dexamethasone alone; untreated cells = 1", "method": "as §1\nIn particular, following experiment was performed according to the procedure disclosed in the previous literature to find out whether inventive extract takes an effect on MAFbx expression during muscle protein degradation by dexamethasone treatment since the activity of MAFbx, a muscle proteolytic enzyme, is known to induce muscle protein loss (Biomed. Pharmacother. 2017, 95:1486)\nas §2, with “membranes. […]” for “membranes.”"}, "[1]": {"assay": "Body weight in dexamethasone animal model of muscle loss", "assay_type": "in vivo, mouse", "settings": "dexamethasone 1 mg/kg s.c. alone", "method": "(§3) Dexamethasone, a synthetic glucocorticoid, was injected subcutaneously into C57/BL6 mouse mice to establish an animal model of muscle loss and following experiment was performed.\n(§4) To establish an in vivo model of muscle loss, 6 weeks-old male C57/BL6 mice (Raon Bio, 6 weeks old, weight range: 32-36 g) were acclimated for one-week, and then weighed animals determined to be healthy during the acclimatization period. The mice close to the average weight were selected using a simple random sampling method and were classified into five groups, namely, (a) a control group, (b) a muscle loss control group (treated with dexamethasone 1 mg/kg), (c) test sample group treated with inventive extract 250 mg/kg and dexamethasone, (d) test sample group treated with inventive extract 500 mg/kg and dexamethasone, and (e) positive control treated with oxymetholone (Celltrion Co. Ltd, ATC #A14AA05, 10 mg/kg) and dexamethasone.\n(§5) The inventive Extract and oxymetholone were administered once to the mice daily for 4 weeks and dexamethasone was injected subcutaneously for 10 days from 10 days before the end of co-treatment of inventive extract and oxymetholone.\n(§6) Both of inventive extract and oxymetholone were forcibly administered orally using zonde for oral administration after holding and fixing the skin of the animal's poll area, and dexamethasone was injected slowly subcutaneously after inserting a syringe into the dorsal skin fold of the animal held on the thumb and index finger, slightly aspirating whether it was injected normally, and confirming that no blood came out.\nThe body weight of every animal was measured once a week for 4 weeks from the day of inventive extract administration."}, "C57/BL6 mice [2]": {"tested_on": "C57/BL6 mice", "assay": "Grip strength test in dexamethasone animal model of muscle loss", "assay_type": "in vivo, mouse", "settings": "dexamethasone 1 mg/kg s.c. alone", "method": "as §3, §4, §5, §6\nThe grip strength of mice was determined as follows; after grabbing the animal's tail and placing it on the grid, the front foot and body were pulled at the same speed until the front foot and body were held at the grid with the front paw, and the average value was calculated after three experimental repetitions. The determination was performed on the 14th and 28th days after the administration of test sample."}, "C57/BL6 mice [3]": {"tested_on": "C57/BL6 mice", "assay": "Treadmill test in dexamethasone animal model of muscle loss", "assay_type": "in vivo, mouse", "settings": "dexamethasone 1 mg/kg s.c. alone", "method": "as §3, §4, §5, §6\nThe determination was performed on the 14th and 28th days after the administration of test sample."}, "C57/BL6 mice [4]": {"tested_on": "C57/BL6 mice", "assay": "Weight of muscle mass, epididymal fat and liver in dexamethasone animal model of muscle loss", "assay_type": "in vivo, mouse", "settings": "dexamethasone 1 mg/kg s.c. alone, autopsy at 4 weeks", "method": "as §3, §4, §5, §6\nThe mice were anesthetized with anesthetic to prevent the movement of experimental animals and sacrificed to minimize pain to dissect them. All instruments used during the experiment were sterilized and disinfected and their liver and epididymis fat were harvested.\nThe gastrocnemius muscle and soleus muscle of the mice were separated, washed in saline, drained, and weighed.\nAfter autopsy at 4 weeks after administration, the weight of liver and Epididymis fat was weighed to calculate weight-to-weight to compare the relative differences between the organ's weight in the groups."}}}
{"smiles": "C[C@@H]1C[C@H]2[C@@H]3CCC4=CC(=O)C=C[C@]4(C)[C@@]3(F)[C@@H](O)C[C@]2(C)[C@@]1(O)C(=O)CO", "note": "[Dexa, dexamethasone]", "values": [{"measurement": "MHC expression", "setting": "MHC", "result": 0.7, "unit": "fold"}, {"measurement": "MAFbx expression", "setting": "MAFbx", "result": 1.9, "unit": "fold"}, {"measurement": "body weight", "setting": "[1]; 0 week", "result": "22.33 ± 1.11", "unit": "gram"}, {"measurement": "body weight", "setting": "[1]; 1 week", "result": "22.84 ± 1.54", "unit": "gram"}, {"measurement": "body weight", "setting": "[1]; 2 weeks", "result": "23.46 ± 1.60", "unit": "gram"}, {"measurement": "body weight", "setting": "[1]; 3 weeks", "result": "23.57 ± 1.81", "unit": "gram"}, {"measurement": "body weight", "setting": "[1]; 4 weeks", "result": "23.57 ± 1.76^ab gram"}, {"measurement": "grip strength", "setting": "C57/BL6 mice [2]; 2 weeks", "result": "1.05 ± 0.08", "unit": "N"}, {"measurement": "grip strength", "setting": "C57/BL6 mice [2]; 4 weeks", "result": "0.94 ± 0.12^b N"}, {"measurement": "motility (treadmill)", "setting": "C57/BL6 mice [3]; 2 weeks", "result": "798.85 ± 14.33", "unit": "meter"}, {"measurement": "motility (treadmill)", "setting": "C57/BL6 mice [3]; 4 weeks", "result": "745.73 ± 30.01", "unit": "meter"}, {"measurement": "absolute weight, epididymal fat", "setting": "C57/BL6 mice [4]", "result": "0.51 ± 0.10", "unit": "gram"}, {"measurement": "absolute weight, calf muscle", "setting": "C57/BL6 mice [4]; gastrocnemius", "result": "0.242 ± 0.014", "unit": "gram"}, {"measurement": "absolute weight, fluke muscle", "setting": "C57/BL6 mice [4]; soleus", "result": "0.014 ± 0.002^c gram"}]}
